Legend:
[1] = test system: H292 cells; experiment: Cytotoxicity (CCK-8 cell viability) of the compounds of Magnoliae flos in H292 cells; assay type: cell-based, human; conditions: 24 h, vs 0.2% DMSO control = 100%
Method: Then, 10 μl of the CCK-8 solution (Dojindo Laboratories, Japan) was mixed with 90 μl of the medium, and 100 μl thereof was added per well. After incubation for a minimum of 30 minutes to a maximum of 4 hours, the absorbance was measured at 570 nm. The cell viability was calculated according to the following Equation 2 with a negative control group treated with 0.2% DMSO as a reference of 100%.
Cell viability=(Compound treated OD 570 nm value)×100/(Negative control group OD 570 nm value) [Equation 2]

[2] = test system: MUC5AC protein; experiment: Inhibition of MUC5AC protein production (immunoassay) by the compounds; assay type: cell-based, human; conditions: for Inhibition rate (%): MUC5AC secretion; for Inhibition rate (%) / MUC5AC secretion (Relative amount to TNF-α treated group, %): TNF-α 20 ng/mL; for production of MUC5AC (in words): vs TNF-α treated group = 100%
Method: For immunoassay of the resulting MUC5AC, the supernatant (50 uL) recovered was dispensed on to a 96-well plate and dried in a thermostat set at 50° C. It was washed with PBS supplemented with 1% BSA and reacted with an MUC5AC antibody (abcam, USA) at room temperature for 1 hour. A secondary antibody was dispensed thereto for reaction for 1 hour. It was washed again and then reacted with a 3,3′,5,5′-tetramethylbenzidine peroxide solution for 20 minutes. After the reaction was stopped with a sulfuric acid solution, the degree of color development was measured at 450 nm.
As a result, as shown in the following Table 6, the amount of MUCSAC secretion increased in the group treated with TNF-α.

[3] = test system: MUC5AC promoters; experiment: MUC5AC promoter luciferase reporter assay in H292 cells; assay type: cell-based, human; conditions: Table 7, MUC5AC promoter luciferase reporter, 10 μM, TNF-α 20 ng/mL
Source text: The degree of activation of luciferase was confirmed using a One-glow Luciferase Assay System (Promega).
As a result, as shown in the following Table 7, the activity of the MUC5AC promoters increased in the group treated with TNF-α.

[4] = test system: inflammatory cells in the bronchoalveolar lavage fluid; experiment: Inflammatory cells in bronchoalveolar lavage fluid of the COPD mouse model (cigarette smoke + LPS); assay type: in vivo, C57BL/6N mice; conditions: BALF, vs COPD-induced group
Method: Six-week-old male SPF (specific pathogen-free) C57BL/6N mice (22 to 24 g) were supplied by Koatech (Korea). These animals were fed with a sufficient amount of solid feed (no antibiotics, Samyang Feed Co.) and water until the day of the experiment. They were allowed to adapt for 1 week in a light-dark cycle environment at a temperature of 22±2° C. and a humidity of 55±15%, and then subjected to the experiment.
The animal model was exposed to cigarette smoke to induce chronic obstructive pulmonary disease. 3R4F Kentuchy Reference Cigarettes as standard cigarettes for use to generate cigarette smoke were supplied by University of California (USA). The standard cigarettes contain 9.4 mg of tar, 11 mg of total particle matter (TPM), and 12 mg of carbon monoxide per 1 cigarette. The standard cigarettes were used after harmonization for 48 hours to 72 hours at a temperature of 22±1° C. and a humidity of 60±2%. Further, Cigarette Smoke Generator manufactured by Korea BioLink (Korea) was used for exposure to cigarette smoke. Cigarette smoke was inhaled for 1 hour (8 pcs/hour) for 7 days from 1 hour after oral administration of a sample. 10 μg of LPS (lipopolysaccharide) in PBS 50 μL was injected intranasally to each mouse on the 4th day of the experiment after the mouse was anesthetized with zoletyl 1 hour before the exposure to cigarette smoke. The smoking condition was 8 puffs per 1 standard cigarette (volume: 45 mL, duration: 2 seconds, and interval: 1 time/min).
The active fraction of Magnoliae flos (15, 30 mg/kg) and roflumilast (10 mg/kg) as therapeutic substances were dissolved in 0.5% sodium carboxymethyl cellulose and were orally administered 1 hour before the exposure to cigarette smoke.
The experimental groups were divided into (i) normal control (NC) group; (ii) cigarette smoke+LPS exposure group (COPD); (iii) experimental group administered with roflumilast (ROF) (10 mg/kg, p.o) 1 hour before the exposure to cigarette smoke+LPS; and (iv) experimental group administered with the active fraction of Magnoliae flos (15, 30 mg/kg, p.o; Magnoliae flos 15 and Magnoliae flos 30) 1 hour before the exposure to cigarette smoke+LPS. […] Then, they were administered in the same manner as above.
The bronchial alveolar lavage fluid was separated from the animal model treated with the active fraction and the compounds of Magnoliae flos in <Test Example 6-2> above in the following manner, and the number of inflammatory cells was measured.
Specifically, a mouse sonde was inserted into the bronchial tube, a 1 mL syringe containing 0.7 mL of DPBS (Dulbecco's Phosphate-Buffered Saline) was connected thereto, and DPBS was injected into the lung. The injected DPBS was recovered, and this procedure was repeated twice. The bronchoalveolar lavage fluid separated by DPBS was centrifuged at 1,500 rpm for 15 minutes to make a cell pellet. The supernatant was stored frozen at −70° C. for cytokine analysis. Each cell obtained was suspended in DPBS, attached to a slide glass using a cytospin centrifuge, and Diff-Quik stained. The number of inflammatory cells in each sample was counted through microscopic examination, and the inhibition rate was calculated according to the following Equation 3.
Inhibition rate=(Value of COPD-induced group−value of target substance administered group)×100/(Value of COPD-induced group) [Equation 3]

[5] = test system: reactive oxygen species; experiment: Production of active oxygen species in BALF of the COPD model (DCF-DA); assay type: in vivo, C57BL/6N mice
Method: Production of active oxygen species in the bronchoalveolar lavage fluid obtained in <Test Example 6-3> above was confirmed by the following method.
Specifically, the separated BALF (200 μL) was treated to the final concentration of 20 μM of DCF-DA (dihydrodichlorofluorescein diacetate, Sigma-Aldrich, USA), followed by culturing for 30 minutes and measurement using Fluorescence (Molecular Device, USA). The inhibition rate was calculated by Equation 3 above.

[6] = test system: IL-6; experiment: IL-6 level in BALF of the COPD model (ELISA); assay type: in vivo, C57BL/6N mice; conditions: vs COPD-induced group; for IL-6 inhibition rate (%): BALF
Method: (§1) Cytokines were measured in the cell supernatant obtained in <Test Example 6-3> above by the following method. Specifically, the levels of IL-6 (R & D System, USA) and TNF-α (BD Bioscience, USA) in the separated BALF were measured by enzyme-linked immuno-sorbent assay (ELISA). Each cytokine analysis was carried out according to the manufacturer's test method.

[7] = test system: TNF-α; experiment: TNF-α level in BALF of the COPD model (ELISA); assay type: in vivo, C57BL/6N mice; conditions: vs COPD-induced group; for TNF-α inhibition rate (%): BALF
Method: as §1

[8] = 15 mg/kg p.o., vs COPD-induced group
[9] = 30 mg/kg p.o., vs COPD-induced group

Compound	Viability of H292 cells (%, average ± deviation) ([1]; 2.5 μM) [%]	Inhibition rate (%) ([2]; 2.5 μM)	Inhibition rate (%) ([2]; 5 μM)	Inhibition rate (%) ([2]; 10 μM)	production of MUC5AC (in words) [2]	Inhibition rate (%) [3] [%]	Inhibition rate of inflammatory cell infiltration (%) Macrophage ([4]; 15 mg/kg p.o.) [%]	Inhibition rate of inflammatory cell infiltration (%) Neutrophil ([4]; 15 mg/kg p.o.) [%]	Inhibition rate of inflammatory cell infiltration (%) Total inflammatory cells ([4]; 15 mg/kg p.o.) [%]	Inhibition rate of inflammatory cell infiltration (%) Macrophage ([4]; 30 mg/kg p.o.) [%]	Inhibition rate of inflammatory cell infiltration (%) Neutrophil ([4]; 30 mg/kg p.o.) [%]	Inhibition rate of inflammatory cell infiltration (%) Total inflammatory cells ([4]; 30 mg/kg p.o.) [%]	Active oxygen inhibition rate (%) [5, 8] [%]	Active oxygen inhibition rate (%) [5, 9] [%]	IL-6 inhibition rate (%) ([6]; 15 mg/kg p.o.)	IL-6 inhibition rate (%) ([6]; 30 mg/kg p.o.)	TNF-α inhibition rate (%) ([7]; 15 mg/kg p.o.)	TNF-α inhibition rate (%) ([7]; 30 mg/kg p.o.)	TNF-α secretion in the bronchoalveolar lavage fluid (in words) [7]	other results
COc1cc([C@H]2OC[C@H]3[C@@H]2CO[C@@H]3c2cc(OC)c(OC)c(OC)c2)cc(OC)c1OC [Compound S3, dimethylliroresinol]	100.55 ± 1.26	2.5	29.38	30.34	inhibited in a manner depending on the concentrations	56.27	19.4 ± 5.4	17.9 ± 6.6	23.3 ± 5.5	33.2 ± 6.2	42.1 ± 3.9	43.5 ± 3.4	15.1 ± 4.7	32.5 ± 3.1	45.9 ± 6.2	43.9 ± 6.5	26.7 ± 7.0	41.7 ± 4.4	concentration-dependent inhibition	production of MUC5AC (in words) ([2]; listed as Formula 4): inhibited the production of MUC5AC in a manner depending on concentration; increase in inflammatory cells (in words) [4]: effectively inhibited; production of active oxygen species (in words) ([5]; 15 and 30 mg/kg, vs COPD-induced group): relatively higher inhibition rates in a manner depending on concentration
COc1ccc([C@H]2OC[C@H]3[C@@H]2CO[C@H]3c2cc(OC)c(OC)c(OC)c2)cc1OC [Compound S4, epimagnolin]	99.81 ± 2.15	9.45	25.76	36.29	inhibited in a manner depending on the concentrations	63.2	0.0 ± 0.0	13.8 ± 4.9	14.0 ± 5.1	21.4 ± 6.5	25.7 ± 5.5	29.1 ± 4.4	13.5 ± 4.3	15.9 ± 4.2	0.0 ± 0.0	40.3 ± 3.7	13.8 ± 5.5	24.7 ± 6.5	concentration-dependent inhibition	Viability of H292 cells (%, average ± deviation) ([1]; 5 μM): 100.74 ± 2.84%; Viability of H292 cells (%, average ± deviation) ([1]; 10 μM): 99.45 ± 1.53%; Viability of H292 cells (%, average ± deviation) ([1]; 20 μM): 97.20 ± 1.99%; MUC5AC secretion (Relative amount to TNF-α treated group, %) ([2]; 2.5 μM): 90.55 ± 2.59%; MUC5AC secretion (Relative amount to TNF-α treated group, %) ([2]; 5 μM): 74.24 ± 2.83%; MUC5AC secretion (Relative amount to TNF-α treated group, %) ([2]; 10 μM): 63.71 ± 1.27%; production of MUC5AC (in words) ([2]; listed as Formula 5): inhibited the production of MUC5AC in a manner depending on concentration; MUC5AC secretion (Relative amount to TNF-α treated group, %) [3]: 36.8 ± 6.97%; rate of inhibiting reactive oxygen compared with ROF drug control group (in words) ([5]; 30 mg/kg): higher rates of inhibiting reactive oxygen than that of the drug control group treated with ROF; IL-6 in the bronchoalveolar lavage fluid (in words) [6]: concentration-dependent decrease
